Several values for one entry are separate records, joined by “and”; a condition that tells them apart may be missing. Identical values can stand only once. Entries after “also recorded” stand apart in the source; their conditions may differ. Like-named read-outs stand apart in the source and are kept apart here.
Tests used:
basal IOP in rabbits = experiment: Basal IOP in rabbits, topical administration; format: in vivo, rabbit; conditions: for effect on lowering basal IOP: one drop of 1 mM solution, other eye PBS
[1] = tested on: Na,K-ATPase in bovine ciliary NPE cells; experiment: biochemical; conditions: 1 site model; read-out: Ki, nM ± SEM
[2] = biological target: human Na,K-ATPase α2β3FXYD1 (Homo sapiens (Human), UniProt P50993+P54709); experiment: biochemical; format: biochemical
[3] = tested on: 4AP-induced IOP in rabbits; format: in vivo, rabbit; conditions: for concentration that prevents the 4AP-induced rise in IOP: one drop topically prior to 4AP
[4] = biological target: human Na,K-ATPase α2β1FXYD1 (Homo sapiens, UniProt P50993); format: biochemical
[5] = tested on: human Na,K-ATPase α2β1FXYD1; format: biochemical
[6] = biological target: human Na,K-ATPase α1β1FXYD1 (Homo sapiens (Human), UniProt P05023); format: biochemical
[7] = biological target: human Na,K-ATPase α2β2FXYD1 (Homo sapiens (Human), UniProt P50993); format: biochemical; conditions: for Ki: read-out: Ki in nM ± SEM α2β2
[8] = biological target: Na,K-ATPase in bovine ciliary NPE cells (Bos taurus, UniProt A2VDL6); experiment: biochemical
[9] = biological target: Na,K-ATPase in bovine ciliary NPE cells (Bos taurus, UniProt Q08DA1); experiment: biochemical
tissues of the eye = experiment: Histological examination of eye tissues after topical application for one week; format: in vivo, rabbit; conditions: one drop of 1 mM daily for one week
Description: In order to assess whether topical application of DcB damaged the tissues of the eye including cornea, iris, lens, cilary body, retina, choroid and sclera, a histological examination was conducted after topical application, using one drop of 1 mM DcB daily for one week in one eye of each animal, with the other eye treated topically with one drop of PBS and serving as the control. Animals were sacrificed, eyes were removed, fixed in 10% neutral buffered formalin, processed routinely for histological examination, trimmed at 4 μm, and stained with hematoxylin and eosin.

[10] = tested on: Na,K-ATPase isoforms α1, α2, α3; conditions: cited from earlier work
[11] = rabbit with a basal IOP of 17 mm Hg
[12] = topical, test period of 4-5 hours

Structure (SMILES): CC1CN(CC2CC2)CCC(O[C@@H]2[C@H](C)O[C@@H](O[C@@H]3[C@H](C)O[C@@H](O[C@H]4CC[C@@]5(C)C(CCC6C5C[C@H](O)[C@]5(C)[C@@H](C7=CC(=O)OC7)CC[C@]65O)C4)C[C@@H]3O)C[C@@H]2O)O1 (stereo partly shown) [DMcP]
- effect on lowering basal IOP (basal IOP in rabbits): notable effect
- reduction of basal IOP (basal IOP in rabbits; [11]): about 4 mm Hg
- reduction of basal IOP (basal IOP in rabbits; [12]): 20-25%
- Ki [1]: 7.9 ± 2.2 nM
- Ki [2]: ~4 nM
- Ki for α2β3 lower than for digoxin [2]: about 10 fold
- Selectivity Ki ratio α1β1/α2β3 [2]: 22.2
- selectivity for α2β3 over α1β1 (Ki α1β1:α2β3 ratio) [2]: 22 fold
- Ki ([2]; read-out: Ki in nM ± SEM α2β3): 4.3 ± 0.6 nM
- concentration that prevents the 4AP-induced rise in IOP [3]: 0.01 mM
- Ki ([4]; read-out: Ki in nM ± SEM α2β1): 18.3 ± 1.6 nM
- Selectivity Ki ratio α1β1/α2β1 [5]: 5.2
- Ki for α1β1 lower than for digoxin [6]: 2-3 fold
- Ki ([6]; read-out: Ki in nM ± SEM α1β1): 95.8 ± 13.7 nM
- Selectivity Ki ratio α1β1/α2β2 [7]: 12
- Ki [7]: 8 ± 0.8 nM

Structure (SMILES): CC1CN(C)CCC(O[C@@H]2[C@H](C)O[C@@H](O[C@@H]3[C@H](C)O[C@@H](O[C@H]4CC[C@@]5(C)C(CCC6C5C[C@H](O)[C@]5(C)[C@@H](C7=CC(=O)OC7)CC[C@]65O)C4)C[C@@H]3O)C[C@@H]2O)O1 (stereo partly shown) [DMe]
- Ki [1]: 15.6 ± 1.3 nM
- Selectivity Ki ratio α1β1/α2β3 [2]: 9.5
- Ki ([2]; read-out: Ki in nM ± SEM α2β3): 10.8 ± 0.6 nM
- Ki ([4]; read-out: Ki in nM ± SEM α2β1): 15.3 ± 1.2 nM
- Selectivity Ki ratio α1β1/α2β1 [5]: 6.7
- Ki ([6]; read-out: Ki in nM ± SEM α1β1): 103 ± 5.6 nM
- Selectivity Ki ratio α1β1/α2β2 [7]: 5.1
- Ki [7]: 20.4 ± 1.8 nM

Structure (SMILES): CC1CN(C2CCC2)CCC(O[C@@H]2[C@H](C)O[C@@H](O[C@@H]3[C@H](C)O[C@@H](O[C@H]4CC[C@@]5(C)C(CCC6C5C[C@H](O)[C@]5(C)[C@@H](C7=CC(=O)OC7)CC[C@]65O)C4)C[C@@H]3O)C[C@@H]2O)O1 (stereo partly shown) [DcB]
- time after which IOP returned to the control value (basal IOP in rabbits; 1 mM DcB, 0.005% Latanoprost): 12 h
- effect on basal IOP at higher concentration (basal IOP in rabbits; 2 mM): reduces the IOP similarly to 1 mM DcB
- steady-state IOP as % of the unchanged control values (basal IOP in rabbits; after 3-8 hours): 75-80%
- steady-state IOP lower than basal IOP (basal IOP in rabbits; after 3-8 hours, basal IOP 17-18 mmHg, 1 mM DcB, 0.005% Latanoprost): 3.5±0.15 mmHg
- effect on lowering basal IOP (basal IOP in rabbits): notable effect
- reduction of basal IOP (basal IOP in rabbits; [11]): about 4 mm Hg
- more effective than Latanoprost in reducing basal IOP (basal IOP in rabbits; relative to Latanoprost): about 25%
- reduction of basal IOP (basal IOP in rabbits; [12]): 20-25%
- Ki [8]: 6.9 ± 2 nM
- Ki ([8]; read-out: Ki α2, 2 sites model): 6.9 nM
- Ki [1]: 17.3 ± 2.5 nM
- Ki [9]: 151 ± 7.6 nM
- histological differences between treated and untreated eyes (tissues of the eye): No significant histological differences were observed
- Ki for α2β3 lower than for digoxin [2]: about 10 fold
- Selectivity Ki ratio α1β1/α2β3 [2]: 33.6
- selectivity for α2β3 over α1β1 (Ki α1β1:α2β3 ratio) [2]: 33 fold
- Ki ([2]; read-out: Ki in nM ± SEM α2β3): ~4 nM and 4 nM
- concentration that prevents the 4AP-induced rise in IOP [3]: 0.01 mM
- Ki ([4]; read-out: Ki in nM ± SEM α2β1): 8 ± 1.25 nM
- Ki ([4]; read-out: Ki of α2β1FXYD1): 8 ± 1.25 nM
- Selectivity Ki ratio α1β1/α2β1 [5]: 16.9
- Ki for α1β1 lower than for digoxin [6]: 2-3 fold
- Ki ([6]; read-out: Ki in nM ± SEM α1β1): 135 ± 11 nM
- Ki ([6]; read-out: Ki of α1β1FXYD1): 135 ± 11 nM
- Selectivity Ki ratio α1β1/α2β2 [7]: 22.2
- Ki [7]: 6 ± 1 nM

Structure (SMILES): CC(C)CN1CCC(O[C@@H]2[C@H](C)O[C@@H](O[C@@H]3[C@H](C)O[C@@H](O[C@H]4CC[C@@]5(C)C(CCC6C5C[C@H](O)[C@]5(C)[C@@H](C7=CC(=O)OC7)CC[C@]65O)C4)C[C@@H]3O)C[C@@H]2O)OC(C)C1 (stereo partly shown) [DiB]
- effect on lowering basal IOP (basal IOP in rabbits): lack of effect; also recorded: neither digoxin nor DiB had a significant effect
- effect on 4AP-induced IOP ([3]; 10 μM): still effective
- Ki ([4]; read-out: Ki in nM ± SEM α2β1): 20.6 ± 1.4 nM
- Ki ([6]; read-out: Ki in nM ± SEM α1β1): 92 nM

Structure (SMILES): C[C@H]1O[C@@H](O[C@H]2[C@@H](O)C[C@H](O[C@H]3[C@@H](O)C[C@H](O[C@H]4CC[C@@]5(C)[C@H](CC[C@@H]6[C@@H]5CC[C@]5(C)[C@@H](C7=CC(=O)OC7)CC[C@]65O)C4)O[C@@H]3C)O[C@@H]2C)C[C@H](O)[C@@H]1O [Digitoxin, digitoxin]
- lower Ki values for α2 compared to α1 [10]: 3-4 fold

Structure (SMILES): C[C@H]1O[C@@H](O[C@H]2[C@@H](O)C[C@H](O[C@H]3[C@@H](O)C[C@H](O[C@H]4CC[C@@]5(C)[C@H](CC[C@@H]6[C@@H]5C[C@@H](O)[C@]5(C)[C@@H](C7=CC(=O)OC7)CC[C@]65O)C4)O[C@@H]3C)O[C@@H]2C)C[C@H](O)[C@@H]1O [Digoxin, digoxin, reference compound]
- effect on lowering basal IOP (basal IOP in rabbits): lack of effect; also recorded: neither digoxin nor DiB had a significant effect
- Ki [1]: 91.7 ± 10.2 nM
- lower Ki values for α2 compared to α1 [10]: 3-4 fold
